Measurements published in patent US9701689B2, “Substituted pyridines and pyridazines as CCR10 receptor inhibitors” (KYOWA HAKKO KIRIN CO., LTD., priority 2012, dated 2017).

biological target: T1, human CCR10 (Homo sapiens, UniProt P46092); assay: CCR10 antagonistic effect: calcium assay of human CCR10 (CTACK-induced increase of intracellular calcium in hCCR10G16 cells); assay type: cell-based; settings: at a concentration of not more than 1000 nmol/L; human CCR10-expressing hCCR10G16 cells, 300 nmol/L CTACK added; read-out: inhibition of increase in the calcium ion concentration
T1 construct: expressed in transfected cells; host or cells: KJMGER8 cells (Namalwa cell-derived line), beta-estradiol-induced; hCCR10G16 cells
T1 sequence (P46092 1-362): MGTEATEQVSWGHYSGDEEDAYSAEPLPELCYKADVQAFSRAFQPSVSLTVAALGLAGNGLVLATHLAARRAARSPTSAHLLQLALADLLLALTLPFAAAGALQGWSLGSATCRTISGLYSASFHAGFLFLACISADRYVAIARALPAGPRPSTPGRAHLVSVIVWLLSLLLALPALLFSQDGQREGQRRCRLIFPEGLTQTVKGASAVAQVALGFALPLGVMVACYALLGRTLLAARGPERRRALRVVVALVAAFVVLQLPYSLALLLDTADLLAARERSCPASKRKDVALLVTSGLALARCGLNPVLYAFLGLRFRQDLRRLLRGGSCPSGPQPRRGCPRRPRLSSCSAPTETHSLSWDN
How it was run: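 KJMGER8-derived hCCR10G16 cells (CCR10 plus Gα16, induced 24 h with 10 nmol/L β-estradiol), Fluo-3 loaded, preincubated with compound 30 min at 37 °C. Stimulated with CTACK (300 nmol/L solution before addition); calcium read ~5 min by FDSS, max−min fluorescence; % inhibition vs control.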

Inhibition at up to 1 µM, ≥ 50%:
Cc1cccc(Nc2cc(S(N)(=O)=O)ncc2C(=O)N2CCC(c3ccc(F)cc3)CC2)c1F [Compound 76, 4-(2-fluoro-3-methylphenylamino)-5-[4-(4-fluorophenyl)piperidine-1-carbonyl]pyridine-2-sulfonamide]
Cc1cc(F)ccc1Nc1c(C(=O)N2CCC(c3ccc(F)cc3)CC2)cnc(S(=O)(=O)n2ccc3ncccc32)c1Cl [Compound 192, [6-(1H-pyrrolo[3,2-b]pyridin-1-ylsulfonyl)-5-chloro-4-(4-fluoro-2-methylphenylamino)pyridin-3-yl][4-(4-fluorophenyl)piperidin-1-yl]methanone]
Cc1cc(NS(=O)(=O)c2ncc(C(=O)N3CCC(c4ccc(F)cc4)CC3)c(NCc3ccccc3)c2C)sn1 [Compound 251, 4-(benzylamino)-5-[4-(4-fluorophenyl)piperidine-1-carbonyl]-3-methyl-N-(3-methylisothiazol-5-yl)pyridine-2-sulfonamide]
COc1ccc(Nc2cc(S(N)(=O)=O)ncc2C(=O)N2CCC(c3ccc(F)cc3)CC2)c(Cl)c1 [Compound 92, 4-(2-chloro-4-methoxyphenylamino)-5-[4-(4-fluorophenyl)piperidine-1-carbonyl]pyridine-2-sulfonamide]
NS(=O)(=O)c1ncc(C(=O)N2CCC(c3ccc(F)cc3)CC2)c(Nc2cc(F)ccc2Cl)c1Cl [Compound 325, 3-chloro-4-(2-chloro-5-fluorophenylamino)-5-[4-(4-fluorophenyl)piperidine-1-carbonyl]pyridine-2-sulfonamide]
Cc1cccc(Nc2c(C(=O)N3CCN(c4ccc(F)cc4)C(=O)C3)cnc(S(N)(=O)=O)c2Cl)c1 [Compound 209, 3-chloro-5-[4-(4-fluorophenyl)-3-oxopiperazine-1-carbonyl]-4-(m-tolylamino)pyridine-2-sulfonamide]
COc1cc(Nc2c(C(=O)N3CCC(c4ccc(F)cc4)CC3)cnc(S(=O)(=O)Nc3ccon3)c2C)ccc1F [Compound 269, 4-(4-fluoro-3-methoxyphenylamino)-5-[4-(4-fluorophenyl)piperidine-1-carbonyl]-N-(isoxazol-3-yl)-3-methylpyridine-2-sulfonamide]
COc1ccc(Nc2c(C(=O)N3CCC(c4ccc(F)cc4)CC3)cnc(S(N)(=O)=O)c2Cl)c(F)c1 [Compound 30, 3-chloro-4-(2-fluoro-4-methoxyphenylamino)-5-[4-(4-fluorophenyl)piperidine-1-carbonyl]pyridine-2-sulfonamide]
Cc1c(S(=O)(=O)Nc2ccon2)ncc(C(=O)N2CCC(c3ccc(F)cc3)CC2)c1Nc1cc(Cl)ccc1F [Compound 271, 4-(5-chloro-2-fluorophenylamino)-5-[4-(4-fluorophenyl)piperidine-1-carbonyl]-N-(isoxazol-3-yl)-3-methylpyridine-2-sulfonamide]
Cc1c(S(N)(=O)=O)ncc(C(=O)N2CCC(c3ccc(F)cc3)CC2)c1NCC1CCOCC1 [Compound 214, 5-[4-(4-fluorophenyl)piperidine-1-carbonyl]-3-methyl-4-[(tetrahydro-2H-pyran-4-yl)methylamino]pyridine-2-sulfonamide]
CNC(=O)C1CCCN1S(=O)(=O)c1cc(Nc2ccc(F)cc2C)c(C(=O)N2CCC(c3ccc(F)cc3)CC2)cn1 (stereo not drawn) [Compound 117, 1-{4-(4-fluoro-2-methylphenylamino)-5-[4-(4-fluorophenyl)piperidine-1-carbonyl]pyridin-2-ylsulfonyl}-N-methylpyrrolidine-2-carboxamide]
CCS(=O)(=O)c1ncc(C(=O)N2CCC(c3ccc(F)cc3)CC2)c(Nc2ccccc2C)c1Cl [Compound 204, [5-chloro-6-(ethylsulfonyl)-4-(o-tolylamino)pyridin-3-yl][4-(4-fluorophenyl)piperidin-1-yl]methanone]
CCNC(=O)NS(=O)(=O)c1cc(Nc2ccc(Cl)cc2C)c(C(=O)N2CCC(c3ccc(F)cc3)CC2)cn1 [Compound 169, 4-(4-chloro-2-methylphenylamino)-N-(ethylcarbamoyl)-5-[4-(4-fluorophenyl)piperidine-1-carbonyl]pyridine-2-sulfonamide]
Cc1c(S(N)(=O)=O)ncc(C(=O)N2CC(c3ccc(F)cc3)C2)c1Nc1cccc(Cl)c1 [Compound 285, 4-(3-chlorophenylamino)-5-[3-(4-fluorophenyl)azetidine-1-carbonyl]-3-methylpyridine-2-sulfonamide]
Cc1ccc(Nc2cc(S(N)(=O)=O)ncc2C(=O)N2CCC(c3ccc(F)cc3)CC2)cc1Cl [Compound 79, 4-(3-chloro-4-methylphenylamino)-5-[4-(4-fluorophenyl)piperidine-1-carbonyl]pyridine-2-sulfonamide]
CC(=O)C1(c2ccc(F)cc2)CCN(C(=O)c2cnc(S(N)(=O)=O)c(Cl)c2Nc2cccc(C)c2)CC1 [Compound 216, 5-[4-acetyl-4-(4-fluorophenyl)piperidine-1-carbonyl]-3-chloro-4-(m-tolylamino)pyridine-2-sulfonamide]
Cc1cc(F)ccc1Nc1cc(S(=O)(=O)NC(=O)NC2CC2)ncc1C(=O)N1CCC(c2ccc(F)cc2)CC1 [Compound 172, N-(cyclopropylcarbamoyl)-4-(4-fluoro-2-methylphenylamino)-5-[4-(4-fluorophenyl)piperidine-1-carbonyl]pyridine-2-sulfonamide]
Cc1cc(F)ccc1Nc1cc(S(=O)(=O)N2CCC(N)CC2)ncc1C(=O)N1CCC(c2ccc(F)cc2)CC1 [Compound 10, [6-(4-aminopiperidin-1-ylsulfonyl)-4-(4-fluoro-2-methylphenylamino)pyridin-3-yl][4-(4-fluorophenyl)piperidin-1-yl]methanone]
Cc1cc(F)ccc1Nc1c(C(=O)N2CCC(c3ccc(F)cc3)CC2)cnc(S(=O)(=O)Nc2cc(C(C)(C)C)on2)c1Cl [Compound 42, N-(5-tert-butylisoxazol-3-yl)-3-chloro-4-(4-fluoro-2-methylphenylamino)-5-[4-(4-fluorophenyl)piperidine-1-carbonyl]pyridine-2-sulfonamide]
COc1ccc(Nc2cc(S(N)(=O)=O)ncc2C(=O)N2CCC(c3ccc(F)cc3)CC2)cc1C(F)(F)F [Compound 89, 5-[4-(4-fluorophenyl)piperidine-1-carbonyl]-4-[4-methoxy-3-(trifluoromethyl)phenylamino]pyridine-2-sulfonamide]
O=C(c1cnc(S(=O)(=O)Nc2ccon2)c(F)c1NCc1ccccc1)N1CCC(c2ccc(F)cc2)CC1 [Compound 225, 4-(benzylamino)-3-fluoro-5-[4-(4-fluorophenyl)piperidine-1-carbonyl]-N-(isoxazol-3-yl)pyridine-2-sulfonamide]
